Measured values from ChEMBL document CHEMBL1201862, “PubChem BioAssay data set” (2004).
Calls of active or inactive are those of the source.

Tests used:
Protein skinhead-1 = target: T1, Protein skinhead-1 (Caenorhabditis elegans, UniProt P34707); format: functional
T1 sequence (P34707 whole entry): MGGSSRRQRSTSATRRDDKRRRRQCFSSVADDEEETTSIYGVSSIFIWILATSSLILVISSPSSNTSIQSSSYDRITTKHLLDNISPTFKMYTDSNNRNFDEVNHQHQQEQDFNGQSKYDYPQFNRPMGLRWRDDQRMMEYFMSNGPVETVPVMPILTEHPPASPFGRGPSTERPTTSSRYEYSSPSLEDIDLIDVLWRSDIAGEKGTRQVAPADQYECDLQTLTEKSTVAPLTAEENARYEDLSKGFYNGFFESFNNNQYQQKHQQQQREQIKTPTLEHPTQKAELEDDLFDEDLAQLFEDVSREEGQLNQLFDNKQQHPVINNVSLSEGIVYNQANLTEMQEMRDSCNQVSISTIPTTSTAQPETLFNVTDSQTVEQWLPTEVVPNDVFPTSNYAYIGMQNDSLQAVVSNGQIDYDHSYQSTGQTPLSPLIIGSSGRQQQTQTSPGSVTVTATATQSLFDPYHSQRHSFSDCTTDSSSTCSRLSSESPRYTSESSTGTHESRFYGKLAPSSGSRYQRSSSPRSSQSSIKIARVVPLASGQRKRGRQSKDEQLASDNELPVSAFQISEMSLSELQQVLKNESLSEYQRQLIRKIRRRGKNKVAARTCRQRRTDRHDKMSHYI

Cytochrome P450 2D6 = Cytochrome P450 2D6 (Homo sapiens, UniProt P10635);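 also: CYP2D6 member of a cytochrome P450 panel assay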
Chain of Cytochrome P450 2D6 (P10635 whole entry): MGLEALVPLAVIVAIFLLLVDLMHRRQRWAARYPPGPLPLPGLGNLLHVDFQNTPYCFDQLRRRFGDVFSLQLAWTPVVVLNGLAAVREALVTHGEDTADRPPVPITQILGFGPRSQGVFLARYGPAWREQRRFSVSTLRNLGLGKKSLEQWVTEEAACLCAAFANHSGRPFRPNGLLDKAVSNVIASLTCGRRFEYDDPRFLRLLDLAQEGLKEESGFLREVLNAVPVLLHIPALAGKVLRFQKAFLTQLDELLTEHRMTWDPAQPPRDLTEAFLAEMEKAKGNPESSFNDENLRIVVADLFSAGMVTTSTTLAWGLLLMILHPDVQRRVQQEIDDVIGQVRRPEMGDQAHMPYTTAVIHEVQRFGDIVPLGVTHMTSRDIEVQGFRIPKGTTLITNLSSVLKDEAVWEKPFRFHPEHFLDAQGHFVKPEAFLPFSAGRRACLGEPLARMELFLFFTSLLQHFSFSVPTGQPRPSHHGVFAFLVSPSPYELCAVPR

[1] = viability of uninfected HEp-2 cells – cell-based, HTS, cytotoxicity control for RSV inhibitor project, dose response (AID 2410); format: functional; details: human respiratory syncytial virus
Cytochrome P450 1A2 = target: T2, Cytochrome P450 1A2 (Homo sapiens, UniProt P05177);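 also: PubChem cytochrome P450 panel assay, CYP1A2 panel member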
T2 sequence (P05177 whole entry): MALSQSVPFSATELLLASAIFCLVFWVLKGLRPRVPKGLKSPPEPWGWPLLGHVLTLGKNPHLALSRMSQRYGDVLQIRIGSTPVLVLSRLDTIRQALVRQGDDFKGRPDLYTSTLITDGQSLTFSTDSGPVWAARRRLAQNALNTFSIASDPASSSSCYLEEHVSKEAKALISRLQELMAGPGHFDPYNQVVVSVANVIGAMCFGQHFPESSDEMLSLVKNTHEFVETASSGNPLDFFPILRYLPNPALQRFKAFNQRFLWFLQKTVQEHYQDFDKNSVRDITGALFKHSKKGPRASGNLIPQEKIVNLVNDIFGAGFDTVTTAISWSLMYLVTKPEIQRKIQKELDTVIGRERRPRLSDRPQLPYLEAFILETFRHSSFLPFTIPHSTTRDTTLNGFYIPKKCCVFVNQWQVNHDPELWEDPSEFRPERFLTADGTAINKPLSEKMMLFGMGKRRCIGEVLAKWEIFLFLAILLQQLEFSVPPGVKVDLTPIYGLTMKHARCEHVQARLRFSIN

[2] = target: T3, Polyadenylate-binding protein 1 (Homo sapiens, UniProt P11940); experiment: MLLE binding blockers, Cy5 peptide tracer – biochemical, fluorescence polarization, Cy5-PAM2 peptide, secondary, miRNA deadenylation inhibitor project, dose response (AID 602260); format: functional; details: read-out: IC50_Mean
T3 sequence (P11940 whole entry, the tested form may be a part): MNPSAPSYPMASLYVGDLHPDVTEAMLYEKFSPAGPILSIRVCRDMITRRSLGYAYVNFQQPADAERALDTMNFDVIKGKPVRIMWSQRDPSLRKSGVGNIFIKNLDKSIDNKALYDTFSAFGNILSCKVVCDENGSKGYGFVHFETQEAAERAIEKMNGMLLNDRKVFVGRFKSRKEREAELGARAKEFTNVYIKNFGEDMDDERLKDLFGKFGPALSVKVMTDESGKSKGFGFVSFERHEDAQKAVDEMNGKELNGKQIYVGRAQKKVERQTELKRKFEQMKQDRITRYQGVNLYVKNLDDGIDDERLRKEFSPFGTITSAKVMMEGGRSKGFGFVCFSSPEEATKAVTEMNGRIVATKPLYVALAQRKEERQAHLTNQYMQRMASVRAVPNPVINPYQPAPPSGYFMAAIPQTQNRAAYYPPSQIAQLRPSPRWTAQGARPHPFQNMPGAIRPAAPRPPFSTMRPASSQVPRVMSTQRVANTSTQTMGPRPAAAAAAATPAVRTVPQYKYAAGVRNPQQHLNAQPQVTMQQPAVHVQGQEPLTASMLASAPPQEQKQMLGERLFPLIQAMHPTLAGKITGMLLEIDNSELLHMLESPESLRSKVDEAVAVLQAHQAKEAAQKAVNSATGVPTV

[3] = target: T3, Polyadenylate-binding protein 1; experiment: MLLE domain peptide-binding blockers, IC50 – biochemical, fluorescence polarization, FITC-PAM2 peptide, dose response (AID 602259); format: functional; details: read-out: IC50_Mean
Cytochrome P450 2C19 = Cytochrome P450 2C19 (Homo sapiens, UniProt P33261); experiment: Cytochrome panel assay with activity outcomes. Panel member name: p450-cyp2c19 Compounds with AC50 equal or less than 10 uM are considered active; format: functional
Chain of Cytochrome P450 2C19 (P33261 whole entry, the tested form may be a part): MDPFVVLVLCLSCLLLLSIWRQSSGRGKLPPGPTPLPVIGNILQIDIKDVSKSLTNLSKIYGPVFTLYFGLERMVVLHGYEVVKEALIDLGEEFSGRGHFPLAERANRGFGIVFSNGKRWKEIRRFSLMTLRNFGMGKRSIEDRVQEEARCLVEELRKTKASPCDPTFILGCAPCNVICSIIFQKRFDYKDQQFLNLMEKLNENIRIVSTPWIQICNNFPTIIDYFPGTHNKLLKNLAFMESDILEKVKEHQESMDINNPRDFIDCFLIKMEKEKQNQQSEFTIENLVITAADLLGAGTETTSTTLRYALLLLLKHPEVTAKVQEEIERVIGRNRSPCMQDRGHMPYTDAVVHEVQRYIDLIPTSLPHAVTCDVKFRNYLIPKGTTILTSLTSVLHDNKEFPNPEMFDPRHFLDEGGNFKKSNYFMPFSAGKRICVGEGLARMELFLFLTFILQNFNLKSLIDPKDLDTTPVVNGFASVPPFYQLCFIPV

[4] = target: T4, RNA-binding protein pos-1 (Caenorhabditis elegans, UniProt G5EF15); experiment: disruptors of C. elegans POS-1 RNA interaction – biochemical, fluorescence polarization, dose response (AID 1964);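 also: purified POS-1 fused to maltose binding protein made in E. coli; potency of compounds blocking POS-1 binding to fluorescent RNA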
T4 sequence (G5EF15 whole entry): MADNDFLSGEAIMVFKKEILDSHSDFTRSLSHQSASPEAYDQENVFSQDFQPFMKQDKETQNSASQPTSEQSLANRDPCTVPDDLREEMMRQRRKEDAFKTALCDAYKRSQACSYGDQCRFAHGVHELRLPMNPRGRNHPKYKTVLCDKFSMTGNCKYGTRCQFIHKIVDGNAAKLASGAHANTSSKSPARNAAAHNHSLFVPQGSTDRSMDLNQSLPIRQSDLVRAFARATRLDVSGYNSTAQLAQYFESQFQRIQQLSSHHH

[5] = target: T5, Zinc finger protein mex-5 (Caenorhabditis elegans, UniProt Q9XUB2); experiment: potency of MEX-5 RNA-binding blockers – biochemical, C. elegans, fluorescence polarization, dose response (AID 1960)
T5 sequence (Q9XUB2 whole entry): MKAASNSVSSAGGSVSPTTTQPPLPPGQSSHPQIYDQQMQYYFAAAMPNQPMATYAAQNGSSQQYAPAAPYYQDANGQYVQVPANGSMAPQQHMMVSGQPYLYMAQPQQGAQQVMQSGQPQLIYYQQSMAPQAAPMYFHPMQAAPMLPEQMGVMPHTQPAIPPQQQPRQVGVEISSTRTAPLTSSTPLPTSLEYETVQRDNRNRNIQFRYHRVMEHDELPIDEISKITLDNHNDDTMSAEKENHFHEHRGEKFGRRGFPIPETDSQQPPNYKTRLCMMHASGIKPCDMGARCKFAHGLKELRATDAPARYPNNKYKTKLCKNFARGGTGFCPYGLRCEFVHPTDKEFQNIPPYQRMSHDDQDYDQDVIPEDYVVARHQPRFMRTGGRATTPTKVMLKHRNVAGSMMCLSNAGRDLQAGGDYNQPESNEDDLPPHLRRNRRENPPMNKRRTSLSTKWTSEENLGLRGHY

[6] = microbe, parasite or virus in culture; format: functional; details: Mycobacterium tuberculosis
[7] = Luminescence Cell-Based Dose Retest to Confirm Inhibitors of Cancer Stem Cells. [Related pubchem assays (depositor defined):AID2717, AID2721]; format: functional; details: Homo sapiens
INS1 = experiment: INS-1E survival protection against cytokine death – cell-based, luminescence, retest, dose response (AID 449756); format: functional; details: Rattus norvegicus;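 also: cell death triggered by IL-1 beta plus TNF-alpha plus IFN-gamma mixture; protective hits raise ATP signal compared with cytokine alone wells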
[8] = Luminescence Cell-Based Dose Response HTS to Identify Activators of Luciferase Translation or Activity in H4 […] Cells. [Related pubchem assays: 1829 (Project Summary), 1814 (Primary HTS)]; format: functional
H4 = experiment: Luminescence Cell-Based Dose Response HTS to Identify Activators of 5'UTR Stem-Loop Driven Prion Protein mRNA Translation in H4 Neuroglioblastoma Cells. [Related pubchem assays: 1829 (Project Summary), 1814 (Primary HTS)]; format: functional; details: Homo sapiens
Cytochrome P450 2C9 = Cytochrome P450 2C9 (Homo sapiens, UniProt P11712)
Chain of Cytochrome P450 2C9 (P11712 whole entry): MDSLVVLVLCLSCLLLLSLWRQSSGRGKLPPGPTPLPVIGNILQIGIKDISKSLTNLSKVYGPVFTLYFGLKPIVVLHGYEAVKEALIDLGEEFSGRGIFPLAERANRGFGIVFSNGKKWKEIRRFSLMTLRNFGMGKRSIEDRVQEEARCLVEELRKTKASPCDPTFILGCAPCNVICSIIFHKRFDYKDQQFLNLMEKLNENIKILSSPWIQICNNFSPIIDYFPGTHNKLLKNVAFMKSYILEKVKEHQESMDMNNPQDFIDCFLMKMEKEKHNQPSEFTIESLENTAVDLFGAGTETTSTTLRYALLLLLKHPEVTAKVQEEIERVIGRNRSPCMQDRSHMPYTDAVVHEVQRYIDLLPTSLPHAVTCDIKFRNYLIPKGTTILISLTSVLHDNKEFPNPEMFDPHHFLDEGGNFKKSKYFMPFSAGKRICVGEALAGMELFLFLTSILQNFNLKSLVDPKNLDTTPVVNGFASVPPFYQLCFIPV

Compound: Cc1ccc(C2=NN(S(C)(=O)=O)C(c3ccc4c(c3)OCO4)C2)cc1 (stereo unspecified)
- IC50 (Protein skinhead-1): > 100 µM (inactive)

Compound: CN(C)c1ccc(/C=C(\C#N)C(=O)Nc2nc3c(s2)CCN(Cc2ccccc2)C3)cc1
- IC50 (Protein skinhead-1): > 100 µM (inactive)

Compound: O[C@@H](c1cc(C(F)(F)F)nc2c(Cl)cc(Cl)cc12)[C@@H]1CCCCN1
- AC50 (Cytochrome P450 2D6): 3.16 µM (inconclusive)

Compound: Cc1ccc(S(=O)(=O)CCC(=O)Nc2nc3c(s2)CCCC3)cc1
- CC50 [1]: 32.3 µM (active)
- AC50 (Cytochrome P450 2D6): 28.2 µM (inconclusive)
- AC50 (Cytochrome P450 1A2): 15.8 µM (inconclusive)

Compound: CC[C@@H]1CN2CCc3cc(OC)c(OC)cc3[C@H]2C[C@@H]1C[C@@H]1NCCc2cc(O)c(OC)cc21
- AC50 (Cytochrome P450 2D6): 10 µM (inconclusive)

Compound: Cc1cc2cc(CNC(=O)CCC(=O)O)ccc2n1C
- IC50 (Protein skinhead-1): > 100 µM (inactive)

Compound: COc1ccc(NC(S)=Nc2cccc(Cl)c2)cc1OC
- IC50 [2]: > 66 µM (inactive)
- IC50 [3]: > 66 µM (inactive)

Compound: O=C(O)c1ccc(Cn2cnc3cccnc32)cc1
- IC50 [2]: > 66 µM (inactive)
- IC50 [3]: 55.8 µM (inactive)

Compound: CCc1cc(C(=O)c2ccccc2OC)c(N)s1
- IC50 [2]: > 66 µM (inactive)
- IC50 [3]: > 66 µM (inactive)

Compound: COC(=O)c1cc(NS(=O)(=O)c2ccc(N3CCCCC3)c([N+](=O)[O-])c2)cc(C(=O)OC)c1
- AC50 (Cytochrome P450 2C19; read-out: AC50): 2.51 µM (inconclusive)
- AC50 (Cytochrome P450 2D6): 10 µM (inconclusive)
- AC50 (Cytochrome P450 1A2): 15.8 µM (inconclusive)

Compound: COc1cccc(C(=O)NCC(=O)NNc2ncnc(N)c2[N+](=O)[O-])c1
- EC50 [4]: > 300 µM (inconclusive)
- EC50 [5]: < 0.06 µM (inconclusive)

Compound: CCCNC(=O)COC(=O)C1CCN(S(=O)(=O)c2ccc3c(c2)OCCO3)CC1
- IC50 (Protein skinhead-1): > 100 µM (inactive)

Compound: Cc1ccc2c(c1)C(c1ccc(N3CCOCC3)cc1)=NNC(c1cccs1)=N2
- CC50 [6]: 38.6 µM (active)

Compound: Cc1oncc1-c1csc(-c2ccccc2Cl)n1
- IC50 (Protein skinhead-1): > 100 µM (inactive)

Compound: CCc1ccc(OCCCC(=O)Nc2ccc(N3CCCCC3)cc2)cc1
- AC50 (Cytochrome P450 2C19; read-out: AC50): 10 µM (inconclusive)
- AC50 (Cytochrome P450 2D6): 1.26 µM (inconclusive)

Compound: CCOc1ccccc1N=C(S)NNS(=O)(=O)c1c(C)cc(C)cc1C
- IC50 [2]: > 66 µM (inactive)
- IC50 [3]: > 66 µM (inactive)

Compound: O=C(CSc1nc2cc(Br)c[nH]c-2n1)Nc1ccc2c(c1)OCO2
- CC50 [6]: > 40 µM (active)

Compound: Cc1ccc(-c2c(C)nn3c(N4CCOCC4)cc(C)nc23)cc1
- IC50 (Protein skinhead-1): > 100 µM (inactive)

Compound: CS(=O)(=O)N1CCC2(CCN(c3ccncc3)CC2)CC1
- AC50 (Cytochrome P450 2D6): 25.1 µM (inconclusive)

Compound: CC(C)(C)C1CCc2sc(-c3nnc(CCl)o3)cc2C1 (stereo unspecified)
- CC50 [6]: 21 µM (active)

Compound: CN(C)c1ccc(-c2cc(O)c3ncccc3c2)cc1
- CC50 [6]: 23.2 µM (active)
- AC50 [7]: 7.11 µM (active)
- AC50 (INS1): 5.16 µM (active)

Compound: c1csc(CSc2nc3ccccc3s2)c1
- EC50 [8]: 1.12 µM (active)
- EC50 (H4): 36.9 µM (active)
- IC50 (Protein skinhead-1): 27.5 µM (active)

Compound: O=C(NC(=S)Nc1ccc2oc(=O)ccc2c1)c1ccco1
- IC50 [2]: > 66 µM (inactive)
- IC50 [3]: > 66 µM (inactive)

Compound: O=C(CN1C(=O)S/C(=C\c2ccccc2)C1=O)NCCCn1ccnc1
- IC50 [2]: > 66 µM (inactive)
- IC50 [3]: > 66 µM (inactive)

Compound: COCCCN=C(S)N(CCO)Cc1cc2cc3c(cc2nc1O)OCCO3
- IC50 [2]: > 66 µM (inactive)
- IC50 [3]: > 66 µM (inactive)

Compound: CCN(CCO)C[C@H]1CCC[C@H]2CCCC[C@@H]21
- AC50 (Cytochrome P450 2D6): 6.31 µM (inconclusive)

Compound: Cc1nn(-c2ccccc2)c(N)c1C(c1ccc(C(C)C)cc1)c1c(C)nn(-c2ccccc2)c1N
- CC50 [6]: > 40 µM (active)

Compound: O=C(NNC(=O)c1cnccn1)c1ccc(Cl)cc1
- EC50 [4]: 95.9 µM (active)
- EC50 [5]: 12.4 µM (active)

Compound: c1ccc(Cn2nnc3c(NCCN4CCOCC4)ncnc32)cc1
- IC50 (Protein skinhead-1): > 100 µM (inactive)

Compound: O=C(NCc1ccco1)c1sc2cc(F)ccc2c1Cl
- IC50 (Protein skinhead-1): > 100 µM (inactive)

Compound: CC(C)Cn1c(N)c(C(=O)CSc2nnnn2C)c(=O)n(C)c1=O
- IC50 (Protein skinhead-1): > 100 µM (inactive)

Compound: O=C(NC(=S)Nc1ccccc1)c1cncc(C#Cc2ccccc2)c1
- IC50 [2]: > 66 µM (inactive)
- IC50 [3]: > 66 µM (inactive)

Compound: CN(C)c1ncc2nc(-c3cccc(C#N)c3)c(=O)n(CCC#N)c2n1
- AC50 (Cytochrome P450 2D6): 39.8 µM (inconclusive)
- AC50 (Cytochrome P450 2C9): inconclusive

Compound: Fc1ccc(Nc2ncncc2-c2ccccc2C(F)(F)F)cc1
- AC50 (Cytochrome P450 2D6): 39.8 µM (inconclusive)
- AC50 (Cytochrome P450 1A2): 20 µM (inconclusive)

Compound: CCn1nnc2sc3c(c2c1=O)CCC(C)C3 (stereo unspecified)
- IC50 (Protein skinhead-1): > 100 µM (inactive)

Compound: CCOc1cc(CNCCSc2nnnn2C)cc(Br)c1OCc1ccc(F)cc1
- IC50 (Protein skinhead-1): 6.7 µM (active)

Compound: O=C1c2ccccc2-c2cc3ccccc3cc21
- IC50 [2]: > 66 µM (inactive)
- IC50 [3]: > 66 µM (inactive)

Compound: N=C(N)Nc1ccc(Cl)cc1
- AC50 (Cytochrome P450 2C19): inconclusive
- AC50 (Cytochrome P450 2D6): 31.6 µM (inconclusive)
